Reference: patent publication US8507540B2, “Oxazolidinone derivatives containing new bicyclic group, having antibacterial activity, and method for treating pathogenic bacterial infections using the same” (Korean Institute of Science and Technology, priority 2011, dated 2013)
Values after ≈ are worked out from the molar mass of the structure shown.

How the values were obtained:
[1] = tested on: Enterococcus faecalis, vancomycin susceptible; assay: In vitro antibacterial activity test, Agar Dilution MIC; conditions: 18 h
Staphylococcus pyogenes = assay: as above; conditions: Staphylococcus aureus, 18 h
[2] = tested on: Staphylococcus agalactiae; assay: as above; conditions: 18 h
[3] = tested on: Staphylococcus pneumoniae, penicillin non-susceptible; assay: as above; conditions: 18 h
[4] = tested on: Staphylococcus aureus, methicillin resistant; assay: as above; conditions: 18 h
[5] = tested on: Enterococcus faecium, vancomycin resistant; assay: as above; conditions: 18 h
[6] = tested on: Mycobacterium tuberculosis (Mtb) H37Rv; assay: In vitro antituberculous activity test, Microplate Alamar Blue Assay; format: cell-based; conditions: versus linezolid
[7] = tested on: Coagulase negative staphylococci, methicillin resistant; assay: In vitro antibacterial activity test, Agar Dilution MIC; conditions: 18 h
[8] = tested on: Coagulase negative staphylococci, methicillin susceptible; assay: as above; conditions: 18 h
[9] = tested on: Enterococcus faecium, vancomycin susceptible; assay: as above; conditions: 18 h
[10] = tested on: MRSA and other gram positive bacteria; Staphylococcus sp., Enterococcus sp. and Haemophilus influenza; assay: In vitro antibacterial activity test, overall statements on the strain panel; conditions: various strains of Table 1
[11] = tested on: Haemophilus influenzae, beta-lactamase-positive; assay: In vitro antibacterial activity test, Agar Dilution MIC; conditions: 18 h
[12] = tested on: Enterococcus faecalis, vancomycin resistant; assay: as above; conditions: 18 h
[13] = tested on: Staphylococcus pneumoniae, penicillin susceptible; assay: as above; conditions: 18 h
[14] = tested on: Staphylococcus aureus, methicillin susceptible; assay: as above; conditions: 18 h
CYP3A4 = CYP3A4 (Homo sapiens, UniProt P08684); assay: CYP450 remaining test (Vivid CYP450 Screening Kits)
Procedure: (§1) CYP450 remaining test was conducted using Vivid® CYP450 Screening Kits Protocol (Invitrogen), and hERG assay for cardiac toxicity test was conducted using an automated patch-clamp device, NPC-16 Patchliner (Nanion Technologies, Munchen, Germany) according to the method of C. Farre, et al. (Combinatorial Chemistry & High Throughput Screening, 2009, 12, 24-37). And, human hepatic microsomal stability test was conducted according to the method of W. A. Korfmacher, et al. (Rapid Commun. Mass Spectrom. 13, 901-907 (1999)).

CYP2D6 = CYP2D6 (Homo sapiens, UniProt P10635); assay: as above
Procedure: as §1

[15] = Human hepatic microsomal stability test; format: in vitro ADME; conditions: human hepatic microsomes
hERG = hERG (Homo sapiens, UniProt Q12809); assay: hERG assay for cardiac toxicity, automated patch-clamp; format: cell-based
[16] = tested on: CYP1A2, CYP2D6, CYP2C9, CYP3A4; assay: in vitro; format: in vitro ADME; conditions: human
CYP1A2 = target: T1, CYP1A2 (Homo sapiens, UniProt P05177); assay: CYP450 remaining test (Vivid CYP450 Screening Kits); format: in vitro ADME; conditions: isozyme 1A2
T1 construct: purchased Invitrogen

CYP2C9 = CYP2C9 (Homo sapiens, UniProt P11712); assay: as above
[17] = automated patch-clamp, NPC-16 Patchliner

hERG, sequence (Q12809 whole entry): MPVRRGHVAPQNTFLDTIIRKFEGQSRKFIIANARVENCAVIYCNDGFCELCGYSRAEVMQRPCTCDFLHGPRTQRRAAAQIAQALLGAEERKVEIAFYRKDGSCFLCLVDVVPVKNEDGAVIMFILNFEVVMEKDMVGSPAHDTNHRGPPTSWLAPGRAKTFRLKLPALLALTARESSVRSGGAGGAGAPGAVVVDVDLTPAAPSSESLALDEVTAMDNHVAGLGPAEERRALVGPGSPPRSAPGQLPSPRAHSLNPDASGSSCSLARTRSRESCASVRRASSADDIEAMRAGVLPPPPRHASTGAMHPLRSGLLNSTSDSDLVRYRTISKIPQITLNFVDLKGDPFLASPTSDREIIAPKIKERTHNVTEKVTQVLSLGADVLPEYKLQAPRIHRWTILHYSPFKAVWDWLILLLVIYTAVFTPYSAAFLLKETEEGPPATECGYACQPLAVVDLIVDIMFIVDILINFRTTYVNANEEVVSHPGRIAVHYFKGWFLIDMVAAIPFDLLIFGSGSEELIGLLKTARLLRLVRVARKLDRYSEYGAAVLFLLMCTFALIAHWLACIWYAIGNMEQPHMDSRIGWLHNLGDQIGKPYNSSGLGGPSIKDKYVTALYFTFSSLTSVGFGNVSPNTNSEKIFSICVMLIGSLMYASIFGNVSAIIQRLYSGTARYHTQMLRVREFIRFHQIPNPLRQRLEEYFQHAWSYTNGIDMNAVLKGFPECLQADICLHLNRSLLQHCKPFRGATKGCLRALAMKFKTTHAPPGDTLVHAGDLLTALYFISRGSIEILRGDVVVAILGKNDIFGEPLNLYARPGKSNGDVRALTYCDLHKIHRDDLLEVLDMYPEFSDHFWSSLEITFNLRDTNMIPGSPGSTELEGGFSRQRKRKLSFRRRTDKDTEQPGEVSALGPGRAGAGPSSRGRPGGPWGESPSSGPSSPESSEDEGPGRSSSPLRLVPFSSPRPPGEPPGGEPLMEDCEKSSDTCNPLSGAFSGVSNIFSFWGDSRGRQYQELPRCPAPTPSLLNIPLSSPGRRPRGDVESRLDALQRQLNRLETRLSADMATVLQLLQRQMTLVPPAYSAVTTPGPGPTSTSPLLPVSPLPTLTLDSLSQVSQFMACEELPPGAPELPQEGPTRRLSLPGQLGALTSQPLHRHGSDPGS
CYP3A4, sequence (P08684 whole entry): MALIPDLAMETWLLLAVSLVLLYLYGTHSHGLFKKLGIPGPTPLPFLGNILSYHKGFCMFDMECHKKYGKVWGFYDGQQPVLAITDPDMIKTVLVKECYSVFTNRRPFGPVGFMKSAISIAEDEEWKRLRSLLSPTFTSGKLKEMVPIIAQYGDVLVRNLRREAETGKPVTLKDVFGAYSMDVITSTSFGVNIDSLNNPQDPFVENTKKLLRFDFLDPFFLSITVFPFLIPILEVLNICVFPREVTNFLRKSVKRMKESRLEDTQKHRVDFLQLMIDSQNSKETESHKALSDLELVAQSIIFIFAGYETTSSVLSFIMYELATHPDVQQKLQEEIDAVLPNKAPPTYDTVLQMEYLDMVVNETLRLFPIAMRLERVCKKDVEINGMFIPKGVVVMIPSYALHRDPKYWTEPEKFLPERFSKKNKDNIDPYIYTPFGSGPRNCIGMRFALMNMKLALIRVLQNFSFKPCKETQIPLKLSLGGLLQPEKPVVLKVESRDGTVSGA
CYP2C9, sequence (P11712 whole entry): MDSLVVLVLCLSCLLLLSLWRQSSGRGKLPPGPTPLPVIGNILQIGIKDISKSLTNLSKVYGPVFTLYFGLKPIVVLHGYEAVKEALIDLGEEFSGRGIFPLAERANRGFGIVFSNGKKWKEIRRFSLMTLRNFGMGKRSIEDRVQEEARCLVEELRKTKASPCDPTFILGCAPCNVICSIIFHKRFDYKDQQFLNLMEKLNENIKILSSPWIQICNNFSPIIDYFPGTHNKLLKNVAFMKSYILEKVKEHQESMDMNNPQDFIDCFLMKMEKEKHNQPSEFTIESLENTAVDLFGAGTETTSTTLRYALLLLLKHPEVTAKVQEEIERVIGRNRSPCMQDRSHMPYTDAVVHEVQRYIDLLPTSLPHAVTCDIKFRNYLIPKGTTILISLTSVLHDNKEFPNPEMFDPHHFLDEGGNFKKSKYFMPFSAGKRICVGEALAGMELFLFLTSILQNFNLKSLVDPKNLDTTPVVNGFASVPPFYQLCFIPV
T1 sequence (P05177 whole entry): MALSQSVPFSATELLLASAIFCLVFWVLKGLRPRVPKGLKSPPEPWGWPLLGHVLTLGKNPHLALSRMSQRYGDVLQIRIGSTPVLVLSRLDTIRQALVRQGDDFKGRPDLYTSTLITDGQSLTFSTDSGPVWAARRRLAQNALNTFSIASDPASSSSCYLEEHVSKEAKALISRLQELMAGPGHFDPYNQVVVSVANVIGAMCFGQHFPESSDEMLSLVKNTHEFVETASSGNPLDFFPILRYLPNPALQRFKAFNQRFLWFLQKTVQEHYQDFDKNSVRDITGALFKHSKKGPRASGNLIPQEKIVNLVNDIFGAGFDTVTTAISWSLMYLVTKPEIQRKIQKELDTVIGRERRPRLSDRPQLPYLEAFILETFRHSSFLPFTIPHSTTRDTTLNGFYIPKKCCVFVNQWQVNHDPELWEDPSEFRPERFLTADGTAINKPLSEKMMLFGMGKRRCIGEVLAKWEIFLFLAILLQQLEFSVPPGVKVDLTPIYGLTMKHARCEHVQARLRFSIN
CYP2D6, sequence (P10635 whole entry): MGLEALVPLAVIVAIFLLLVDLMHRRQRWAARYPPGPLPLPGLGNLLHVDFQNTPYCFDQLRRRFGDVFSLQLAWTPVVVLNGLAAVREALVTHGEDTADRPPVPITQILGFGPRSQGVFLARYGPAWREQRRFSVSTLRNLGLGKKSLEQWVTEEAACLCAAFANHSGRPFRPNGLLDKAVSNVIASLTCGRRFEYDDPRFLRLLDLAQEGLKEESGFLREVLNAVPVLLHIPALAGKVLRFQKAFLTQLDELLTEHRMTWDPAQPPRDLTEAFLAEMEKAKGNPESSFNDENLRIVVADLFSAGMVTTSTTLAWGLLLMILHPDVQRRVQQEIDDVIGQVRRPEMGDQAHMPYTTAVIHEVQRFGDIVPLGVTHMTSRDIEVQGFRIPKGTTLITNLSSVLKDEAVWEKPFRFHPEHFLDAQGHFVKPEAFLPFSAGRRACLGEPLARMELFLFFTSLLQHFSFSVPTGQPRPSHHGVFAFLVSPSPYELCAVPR

Row | Compound | MIC [1] | MIC (Staphylococcus pyogenes) | MIC [2] | MIC [3] | MIC [4] | MIC [5] | antituberculous activity compared to linezolid [6] | MIC [7] | MIC [8] | MIC [9] | antibacterial activity against the strain panel [10] | MIC [11] | MIC [12] | MIC [13] | MIC [14] | also measured
1 | CC(=O)NC[C@H]1CN(c2ccc(N3CC4C=C(CC#N)CC4C3)c(F)c2)C(=O)O1 (stereo partly drawn) [Example 2, N-[[(5S)-3-[4-(5-cyanomethyl-3,3a,4,6a-tetrahydro-1H-cyclopenta[c]pyrrol-2-yl)-3-fluorophenyl]-2-oxo-5-oxazolidinyl]methyl]acetamide] | 1.5 µg/mL (≈ 3.76 µM) | 0.7 µg/mL (≈ 1.76 µM) | 1.5 µg/mL (≈ 3.76 µM) | 0.7 µg/mL (≈ 1.76 µM) | 1.5 µg/mL (≈ 3.76 µM) | 1.5 µg/mL (≈ 3.76 µM) | antibacterial effects equivalent to linezolid | 3.1 µg/mL (≈ 7.78 µM) | 3.1 µg/mL (≈ 7.78 µM) | 1.5 µg/mL (≈ 3.76 µM) | high antibacterial activities | 1.5 µg/mL (≈ 3.76 µM) | 3.1 µg/mL (≈ 7.78 µM) | 0.7 µg/mL (≈ 1.76 µM) | 3.1 µg/mL (≈ 7.78 µM) | –
2 | O=C1O[C@@H](Cn2ccnn2)CN1c1ccc(N2CC3CC(=NO)CC3C2)c(F)c1 (stereo partly drawn) [Example 5, (5R)-3-[3-fluoro-4-(5-hydroxyimino-hexahydro-cyclopenta[c]pyrrol-2-yl)phenyl]-5-(1,2,3-triazol-1-ylmethyl)oxazolidin-2-one] | 6.2 µg/mL (≈ 15.5 µM) | 0.7 µg/mL (≈ 1.75 µM) | 1.5 µg/mL (≈ 3.75 µM) | 0.7 µg/mL (≈ 1.75 µM) | 6.2 µg/mL (≈ 15.5 µM) | 6.2 µg/mL (≈ 15.5 µM) | – | 6.2 µg/mL (≈ 15.5 µM) | 6.2 µg/mL (≈ 15.5 µM) | 3.1 µg/mL (≈ 7.74 µM) | – | 3.1 µg/mL (≈ 7.74 µM) | 6.2 µg/mL (≈ 15.5 µM) | 1.5 µg/mL (≈ 3.75 µM) | 6.2 µg/mL (≈ 15.5 µM) | –
3 | CC(=O)N1CCN(c2ccc(OCC3COC(Cn4ccnc4)(c4ccc(Cl)cc4Cl)O3)cc2)CC1 (centres unmarked) [ketoconazole, reference compound] | – | – | – | – | – | – | – | – | – | – | – | – | – | – | – | activity (CYP3A4): 2.3%
4 | CC(=O)NC[C@H]1CN(c2ccc(N3CC4C=C(C#N)CC4C3)c(F)c2)C(=O)O1 (stereo partly drawn) [Example 3, N-[[(5S)-3-[4-(5-cyano-3,3a,4,6a-tetrahydro-1H-cyclopenta[c]pyrrol-2-yl)-3-fluorophenyl]-2-oxo-5-oxazolidinyl]methyl]acetamide] | 3.1 µg/mL (≈ 8.06 µM) | 0.7 µg/mL (≈ 1.82 µM) | 1.5 µg/mL (≈ 3.9 µM) | 0.3 µg/mL (≈ 0.78 µM) | 1.5 µg/mL (≈ 3.9 µM) | 1.5 µg/mL (≈ 3.9 µM) | more excellent antibacterial activities than linezolid | 3.1 µg/mL (≈ 8.06 µM) | 3.1 µg/mL (≈ 8.06 µM) | 1.5 µg/mL (≈ 3.9 µM) | high antibacterial activities | 0.3 µg/mL (≈ 0.78 µM) | 3.1 µg/mL (≈ 8.06 µM) | 0.7 µg/mL (≈ 1.82 µM) | 3.1 µg/mL (≈ 8.06 µM) | –
5 | CON=C1CC2CN(c3ccc(N4C[C@H](Cn5ccnn5)OC4=O)cc3F)CC2C1 (stereo partly drawn) [Example 6, (5R)-3-[3-fluoro-4-(5-methoxyimino-hexahydro-cyclopenta[c]pyrrol-2-yl)phenyl]-5-(1,2,3-triazol-1-ylmethyl)oxazolidin-2-one] | 1.5 µg/mL (≈ 3.62 µM) | 0.1 µg/mL (≈ 0.241 µM) | 0.3 µg/mL (≈ 0.724 µM) | 0.1 µg/mL (≈ 0.241 µM) | 6.2 µg/mL (≈ 15 µM) | 1.5 µg/mL (≈ 3.62 µM) | antibacterial effects equivalent to linezolid | 6.2 µg/mL (≈ 15 µM) | 6.2 µg/mL (≈ 15 µM) | 1.5 µg/mL (≈ 3.62 µM) | – | 0.3 µg/mL (≈ 0.724 µM) | 3.1 µg/mL (≈ 7.48 µM) | 0.3 µg/mL (≈ 0.724 µM) | 6.2 µg/mL (≈ 15 µM) | –
6 | CC(=O)NC[C@H]1CN(c2ccc(N3CCOCC3)c(F)c2)C(=O)O1 [LZD, linezolid, reference compound] | 1.5 µg/mL (≈ 4.45 µM) | 0.7 µg/mL (≈ 2.07 µM) | 1.5 µg/mL (≈ 4.45 µM) | 0.7 µg/mL (≈ 2.07 µM) | 3.1 µg/mL (≈ 9.19 µM) | 1.5 µg/mL (≈ 4.45 µM) | – | 3.1 µg/mL (≈ 9.19 µM) | 3.1 µg/mL (≈ 9.19 µM) | 1.5 µg/mL (≈ 4.45 µM) | – | 0.7 µg/mL (≈ 2.07 µM) | 1.5 µg/mL (≈ 4.45 µM) | 0.7 µg/mL (≈ 2.07 µM) | 3.1 µg/mL (≈ 9.19 µM) | –
7 | O=C1CC2CN(c3ccc(N4C[C@H](Cn5ccnn5)OC4=O)cc3F)CC2C1 (stereo partly drawn) [Example 4, (5R)-3-[3-fluoro-4-(5-oxo-hexahydro-cyclopenta[c]pyrrol-2-yl)phenyl]-5-(1,2,3-triazol-1-ylmethyl)oxazolidin-2-one] | 1.5 µg/mL (≈ 3.89 µM) | 0.3 µg/mL (≈ 0.778 µM) | 0.7 µg/mL (≈ 1.82 µM) | 0.3 µg/mL (≈ 0.778 µM) | 3.1 µg/mL (≈ 8.04 µM) | 3.1 µg/mL (≈ 8.04 µM) | more excellent antibacterial activities than linezolid | 3.1 µg/mL (≈ 8.04 µM) | 3.1 µg/mL (≈ 8.04 µM) | 1.5 µg/mL (≈ 3.89 µM) | high antibacterial activities | 1.5 µg/mL (≈ 3.89 µM) | 1.5 µg/mL (≈ 3.89 µM) | 0.7 µg/mL (≈ 1.82 µM) | 3.1 µg/mL (≈ 8.04 µM) | activity (CYP3A4): 106%; activity (CYP2D6): 108%; Human Hepatic Microsomal stability Remaining activity after 30 minutes (%) [15]: 83.8%; IC50 (hERG; [17]): 80.5 µM; hERG Max, (hERG; [17]): 38%; hERG bonding (hERG; in vitro hERG assay, cardiac toxicity): does not have hERG bonding; activity [16]: 73.6 to 106%; activity (CYP1A2): 94.9%; activity (CYP2C9): 73.7%
